| Structure (SMILES) | melting point |
| --- | --- |
| O=C1Nc2ccc([N+](=O)[O-])cc2/C1=C(/Nc1ccc(CN2CCOCC2)cc1)c1ccccc1 [Example 118, (Z)-3-[1-(4-morpholinomethyl-phenylamino)-1-phenyl-methylidene]-5-nitro-2-indolinone] | 273 °C |
| CC(C)S(=O)(=O)N(CCN(C)C)c1ccc(N/C(=C2\C(=O)Nc3ccccc32)c2ccccc2)cc1 [Example 309, (Z)-3-{1-[4-(N-(2-dimethylaminoethyl)-N-isopropylsulphonyl-amino)-phenylamino]-1-phenyl-methylidene}-2-indolinone] | 247 °C |
| COCc1cccc(N/C(=C2\C(=O)Nc3ccccc32)c2ccccc2)c1 [Example 5, (Z)-3-[1-(3-methoxymethyl-phenylamino)-1-phenyl-methylidene]-2-indolinone] | 182 to 184 °C |
| CC(=O)N1CCN(Cc2ccc(N/C(=C3\C(=O)Nc4ccc([N+](=O)[O-])cc43)c3ccccc3)cc2)CC1 [Example 246, (Z)-3-{1-[4-(4-acetylpiperazin-1-ylmethyl)-phenylamino]-1-phenyl-methylidene}-5-nitro-2-indolinone] | 275 to 277 °C |
| CC(C)(C)OC(=O)Nc1ccc(N/C(=C2\C(=O)Nc3ccc([N+](=O)[O-])cc32)c2ccccc2)cc1 [Example 90, (Z)-3-[1-(4-tert.butoxycarbonylamino-phenylamino)-1-phenyl-methylidene]-5-nitro-2-indolinone] | 235 to 237 °C (dec.) |
| CC1CCN(Cc2ccc(N/C(=C3\C(=O)Nc4ccc([N+](=O)[O-])cc43)c3ccccc3)cc2)CC1 [Example 169, (Z)-3-{1-[4-(4-methylpiperidinomethyl)-phenylamino]-1-phenyl-methylidene}-5-nitro-2-indolinone] | 161 °C |
| Cc1ccc(/C(Nc2ccc(CN(C)C)cc2)=C2/C(=O)Nc3ccc([N+](=O)[O-])cc32)cc1 [Example 212, (Z)-3-[1-(4-dimethylaminomethyl-phenylamino)-1-(p-tolyl)-methylidene]-5-nitro-2-indolinone] | 274 to 276 °C |
| COC1CCN(CCc2ccc(N/C(=C3\C(=O)Nc4ccc([N+](=O)[O-])cc43)c3ccccc3)cc2)CC1 [Example 261, (Z)-3-{1-[4-(2-(4-methoxypiperidino)-ethyl)-phenylamino]-1-phenyl-methylidene}-5-nitro-2-indolinone] | 212 to 214 °C |
| O=C1Nc2ccc([N+](=O)[O-])cc2/C1=C(/Nc1ccc(CNc2ncccn2)cc1)c1ccccc1 [Example 271, (Z)-3-{1-[4-(pyrimidin-2-ylaminomethyl)-phenylamino]-1-phenyl-methylidene}-5-nitro-2-indolinone] | 284 to 286 °C |
| CN(C)CCN(C)C(=O)CN(c1ccc(N/C(=C2\C(=O)Nc3ccccc32)c2ccccc2)cc1)S(C)(=O)=O [Example 293, (Z)-3-{1-[4-(N—((N-(2-dimethylaminoethyl)-N-methyl-amino)-carbonylmethyl)-N-methylsulphonyl-amino)-phenylamino]-1-phenyl-methylidene}-2-indolinone] | 170 °C |
| CN(C)C(=O)CCNCc1ccc(N/C(=C2\C(=O)Nc3ccc([N+](=O)[O-])cc32)c2ccccc2)cc1 [Example 243, (Z)-3-{1-[4-(2-dimethylaminocarbonyl-ethylaminomethyl)-phenylamino]-1-phenyl-methylidene}-5-nitro-2-indolinone] | 215 to 217 °C |
| O=CNc1ccc(N/C(=C2\C(=O)Nc3ccccc32)c2ccccc2)cc1 [Example 29, (Z)-3-[1-(4-formylamino-phenylamino)-1-phenyl-methylidene]-2-indolinone] | 268 to 269 °C |
| Cl.NCC(=O)NCc1cccc(N/C(=C2\C(=O)Nc3ccc([N+](=O)[O-])cc32)c2ccccc2)c1 | 309 °C |
| CN(C)Cc1ccc(N/C(=C2\C(=O)Nc3ccc([N+](=O)[O-])cc32)c2ccc(Cl)cc2)cc1 [Example 222, (Z)-3-[1-(4-dimethylaminomethyl-phenylamino)-1-(4-chlorophenyl)-methylidene]-5-nitro-2-indolinone] | 311 °C |
| Cl.O=C1Nc2ccc([N+](=O)[O-])cc2/C1=C(/Nc1ccc(CNCc2ccccc2)cc1)c1ccccc1 | 298 to 300 °C |
| CN(C)C(=O)COc1ccc(N/C(=C2\C(=O)Nc3ccccc32)c2ccccc2)cc1 [Example 291, (Z)-3-{1-[4-(dimethylaminocarbonylmethyloxy)-phenylamino]-1-phenyl-methylidene}-2-indolinone] | 224 to 226 °C |

The next lines start with the values.

| melting point | Structure (SMILES) |
| --- | --- |
| 180 °C | CC(=O)NCc1ccc(/C(Nc2cccc(N(CCN(C)C)S(C)(=O)=O)c2)=C2/C(=O)Nc3ccccc32)cc1 [Example 423, (Z)-3-{1-[3-(N-(2-dimethylaminoethyl)-N-methylsulphonyl-amino)-phenylamino]-1-(4-acetylaminomethyl-phenyl)-methylidene}-2-indolinone] |
| 226 to 228 °C | O=C1Nc2ccc([N+](=O)[O-])cc2/C1=C(/Nc1ccc(CN2CCCCC2)cc1)c1ccc(Cn2ccnc2)cc1 [Example 439, (Z)-3-{1-[4-piperidinomethyl-phenylamino]-1-[4-(imidazol-1-yl-methyl)-phenyl]-methylidene}-5-nitro-2-indolinone] |
| 248 °C | CN(C)CCN(c1ccc(N/C(=C2\C(=O)Nc3ccc([N+](=O)[O-])cc32)c2ccccc2)cc1)S(=O)(=O)Cc1ccccc1 [Example 313, (Z)-3-{1-[4-(N-(2-dimethylaminoethyl)-N-benzylsulphonyl-amino)-phenylamino]-1-phenyl-methylidene}-5-nitro-2-indolinone] |
| 270 °C (dec.) | CNC(=O)CN(C(C)=O)c1ccc(N/C(=C2\C(=O)Nc3ccccc32)c2ccccc2)cc1 [Example 354, (Z)-3-{1-[4-(N-methylaminocarbonylmethyl-N-acetyl-amino)-phenylamino]-1-phenyl-methylidene}-2-indolinone] |
| 181 to 183 °C | CN(C)CCN(C)C(=O)c1ccc(N/C(=C2\C(=O)Nc3ccccc32)c2ccccc2)cc1 [Example 391, (Z)-3-{1-[4-(N-(2-dimethylaminoethyl)-N-methyl-aminocarbonyl)-phenylamino]-1-phenyl-methylidene}-2-indolinone] |
| 208 to 211 °C | CN(C)CCN(c1cccc(N/C(=C2\C(=O)Nc3ccccc32)c2ccccc2)c1)S(C)(=O)=O [Example 324, (Z)-3-{1-[3-(N-(2-dimethylaminoethyl)-N-methylsulphonyl-amino)-phenylamino]-1-phenyl-methylidene}-2-indolinone] |
| 194 °C | CCS(=O)(=O)N(CCCN(C)C)c1ccc(N/C(=C2\C(=O)Nc3ccccc32)c2ccccc2)cc1 [Example 316, (Z)-3-{1-[4-(N-(3-dimethylaminopropyl)-N-ethylsulphonyl-amino)-phenylamino]-1-phenyl-methylidene}-2-indolinone] |
| 228 to 230 °C | CC(=O)N(CCN(C)C)c1ccc(N/C(=C2\C(=O)Nc3ccc([N+](=O)[O-])cc32)c2ccccc2)cc1 [Example 328, (Z)-3-{1-[4-(N-(2-dimethylaminoethyl)-N-acetyl-amino)-phenylamino]-1-phenyl-methylidene}-5-nitro-2-indolinone] |

Reference: US6855710B2, “Substituted indolines with an inhibitory effect on various kinases and complexes of CDKs” (Boehringer Ingelheim Pharma KG, priority 1998, dated 2005)
